Here are results for 18 molecules from US8778958B2, “Synthesis of metabolically stable agents for alcohol and drug abuse” (priority 2008, dated 2014).

Test in all cases: biochemical
Type in all cases: binding

One test deals with T1, μ-opioid receptor (Homo sapiens, UniProt P35372).
T1 construct: expressed in transfected cells; host or cells: CHO cells

A further test addresses T2, δ-opioid receptor (Homo sapiens, UniProt P41143).
T2 construct: expressed in transfected cells; host or cells: CHO cells
The conditions noted are these: Table 1b; for Ki: N-oxides.

The target of the next test is T3, κ-opioid receptor (Homo sapiens, UniProt P41145).
T3 construct: expressed in transfected cells; host or cells: CHO cells
The conditions noted are these: read-out: Ki (nM) ± SEM, κ.

The mark [1] stands for this setting: Ki (nM) ± SEM, μ, Table 1b, N-oxides.

Read-outs that look alike come from different tables or passages of the source.

T2 sequence (P41143 whole entry): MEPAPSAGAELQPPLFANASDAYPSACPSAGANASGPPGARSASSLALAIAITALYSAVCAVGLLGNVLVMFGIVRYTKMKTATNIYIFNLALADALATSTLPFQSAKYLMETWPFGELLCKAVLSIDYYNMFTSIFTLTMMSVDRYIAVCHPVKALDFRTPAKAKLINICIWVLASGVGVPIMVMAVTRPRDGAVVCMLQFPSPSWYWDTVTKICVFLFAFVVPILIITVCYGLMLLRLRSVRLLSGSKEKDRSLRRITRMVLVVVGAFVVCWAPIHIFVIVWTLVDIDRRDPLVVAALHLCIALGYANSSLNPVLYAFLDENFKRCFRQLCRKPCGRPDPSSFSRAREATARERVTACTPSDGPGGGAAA
T1 sequence (P35372 whole entry): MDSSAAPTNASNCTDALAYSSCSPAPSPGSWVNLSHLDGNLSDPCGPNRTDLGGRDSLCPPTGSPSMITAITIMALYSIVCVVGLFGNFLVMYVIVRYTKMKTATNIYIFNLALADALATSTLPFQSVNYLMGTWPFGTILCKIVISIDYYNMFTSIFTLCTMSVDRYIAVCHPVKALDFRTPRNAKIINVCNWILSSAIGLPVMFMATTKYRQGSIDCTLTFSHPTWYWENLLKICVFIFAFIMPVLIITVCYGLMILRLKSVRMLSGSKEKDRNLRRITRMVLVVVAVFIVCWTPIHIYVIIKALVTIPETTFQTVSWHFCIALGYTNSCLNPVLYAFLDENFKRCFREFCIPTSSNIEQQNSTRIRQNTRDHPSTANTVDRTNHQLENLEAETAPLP
T3 sequence (P41145 whole entry): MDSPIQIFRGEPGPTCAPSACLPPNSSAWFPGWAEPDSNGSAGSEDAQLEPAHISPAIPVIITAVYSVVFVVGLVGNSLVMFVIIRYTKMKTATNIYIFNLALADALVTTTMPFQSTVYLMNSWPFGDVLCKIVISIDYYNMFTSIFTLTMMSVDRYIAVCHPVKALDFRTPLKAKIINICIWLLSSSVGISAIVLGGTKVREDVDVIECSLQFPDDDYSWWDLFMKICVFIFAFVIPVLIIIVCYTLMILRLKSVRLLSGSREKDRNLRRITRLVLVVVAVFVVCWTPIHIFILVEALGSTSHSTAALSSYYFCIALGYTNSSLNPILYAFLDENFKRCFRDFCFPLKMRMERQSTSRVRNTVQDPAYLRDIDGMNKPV

“17-Cyclopropylmethyl-3,14-β-dihydroxy-4,5α-epoxy-6α-N-methyl-(3′,4′-dichloro)morphinan-N-oxide [Compound 51]”: the Ki on μ-opioid receptor (read-out: Ki (nM) ± SEM, μ) was 7.3 ± 0.2 nM; at δ-opioid receptor (read-out: Ki (nM) ± SEM, δ) it was 120 ± 5 nM; on κ-opioid receptor (Table 1b, N-oxides) it was 2 ± 0.09 nM.

As for “17-Cyclopropylmethyl-3,14-β-dihydroxy-4,5α-epoxy-6β-N-methyl-(4′-iodo)morphinan-N-oxide [Compound 62]”, the inhibition constant Ki on μ-opioid receptor (read-out: Ki (nM) ± SEM, μ) was found to be 408 ± 11.5 nM; on κ-opioid receptor (Table 1b, N-oxides), 224 ± 15.7 nM. Moreover, the “Inhibition of agonist binding, δ” value on δ-opioid receptor (concentration not given) is recorded as <50% inh.

Consider “17-Cyclopropylmethyl-3,14β-dihydroxy-4,5α-epoxy-6α-(6-acetamido-2,3,4,6-tetra-O-benzyl-D-pyranose)morphinan-N-oxide [Compound 36]”, for which the Ki at μ-opioid receptor (read-out: Ki (nM) ± SEM, μ) came to 308 ± 13 nM; on δ-opioid receptor (read-out: Ki (nM) ± SEM, δ), 1860 ± 144 nM; at κ-opioid receptor (Table 1b, N-oxides), 18 ± 1 nM.

For the molecule `CN(C(=O)/C=C/c1ccoc1)[C@@H]1CC[C@@]2(O)[C@H]3Cc4ccc(O)c5c4[C@@]2(CC[N+]3([O-])CC2CC2)[C@H]1O5` (relative stereo) [Compound 44, 17-Cyclopropylmethyl-3,14β-dihydroxy-4,5α-epoxy-6β-[N-methyl-trans-3-(3-furyl)acrylamido]morphinan-N-oxide], the Ki turned out to be 65 ± 7.7 nM at μ-opioid receptor (setting [1]); 2510 ± 231 nM on δ-opioid receptor (Ki (nM) ± SEM, δ); 3.9 ± 0.5 nM on κ-opioid receptor.

With `Cc1ccc(C(=O)N[C@@H]2CC[C@@]3(O)[C@H]4Cc5ccc(O)c6c5[C@@]3(CC[N+]4([O-])CC3CC3)[C@H]2O6)cc1` (stereo partly drawn) [Compound 21, 17-Cyclopropylmethyl-3,14β-dihydroxy-4,5α-epoxy-6β-[(4′-methyl)benzamido]morphinan-N-oxide], the Ki on μ-opioid receptor (setting [1]) worked out at 5.5 ± 0.2 nM; at δ-opioid receptor (Ki (nM) ± SEM, δ), 342 ± 12.6 nM; at κ-opioid receptor, 3.1 ± 0.16 nM.

Regarding `O=C(N[C@@H]1CC[C@@]2(O)[C@H]3Cc4ccc(O)c5c4[C@@]2(CC[N+]3([O-])CC2CC2)[C@H]1O5)c1ccc(C(F)(F)F)cc1` (stereo partly drawn) [Compound 22, 17-Cyclopropylmethyl-3,14β-dihydroxy-4,5α-epoxy-6β-[(4′-trifluoromethyl)benzamido]morphinan-N-oxide], the inhibition constant Ki at μ-opioid receptor (setting [1]) is 1.4 ± 0.03 nM; on δ-opioid receptor (Ki (nM) ± SEM, δ) it was 117 ± 5.18 nM; at κ-opioid receptor, 1.9 ± 0.11 nM.

`CC(C)(C)c1ccc(C(=O)N[C@@H]2CC[C@@]3(O)[C@H]4Cc5ccc(O)c6c5[C@@]3(CC[N+]4([O-])CC3CC3)[C@H]2O6)cc1` (stereo partly drawn) [Compound 23, 17-Cyclopropylmethyl-3,14β-dihydroxy-4,5α-epoxy-6β-[(4′-tert-butyl)benzamido]morphinan-N-oxide]: the inhibition constant Ki on μ-opioid receptor (setting [1]) amounted to 1.7 ± 0.07 nM; at δ-opioid receptor (Ki (nM) ± SEM, δ), 25 ± 2.38 nM; on κ-opioid receptor, 1.9 ± 0.14 nM.

Take `CN(C)c1ccc(C(=O)N[C@@H]2CC[C@@]3(O)[C@H]4Cc5ccc(O)c6c5[C@@]3(CC[N+]4([O-])CC3CC3)[C@H]2O6)cc1` (stereo partly drawn) [Compound 24, 17-Cyclopropylmethyl-3,14β-dihydroxy-4,5α-epoxy-6β-[(4′-dimethylamino)benzamido]morphinan-N-oxide]: the inhibitory constant (Ki) at μ-opioid receptor (read-out: Ki (nM) ± SEM, μ) stood at 478 ± 23 nM; on δ-opioid receptor (read-out: Ki (nM) ± SEM, δ), 5850 ± 560 nM; at κ-opioid receptor (Table 1b, N-oxides), 227 ± 48.1 nM.

With `O=C(Cc1cccs1)N[C@@H]1CC[C@@]2(O)[C@H]3Cc4ccc(O)c5c4[C@@]2(CC[N+]3([O-])CC2CC2)[C@H]1O5` (stereo partly drawn) [Compound 25, 17-Cyclopropylmethyl-3,14β-dihydroxy-4,5α-epoxy-6β-[(thiophen-2′-yl)acetamido]morphinan-N-oxide], the Ki at μ-opioid receptor (read-out: Ki (nM) ± SEM, μ) came out at 34.8 ± 2.08 nM; at δ-opioid receptor (read-out: Ki (nM) ± SEM, δ), 752 ± 8.91 nM; at κ-opioid receptor (Table 1b, N-oxides) it was 13 ± 1 nM.

For the molecule `CN(C(=O)c1ccc(Br)cc1)[C@H]1CC[C@@]2(O)[C@H]3Cc4ccc(O)c5c4[C@@]2(CC[N+]3([O-])CC2CC2)[C@H]1O5` (stereo partly drawn) [Compound 26, 17-Cyclopropylmethyl-3,14β-dihydroxy-4,5α-epoxy-6α-N-methyl[(4′-bromo)benzamido]morphinan-N-oxide], the Ki at μ-opioid receptor (setting [1]) was found to be 5.8 ± 0.21 nM; on δ-opioid receptor (Ki (nM) ± SEM, δ), 51 ± 5.8 nM; at κ-opioid receptor, 2.41 ± 0.19 nM.

On to `CN(C(=O)c1ccc(C(C)(C)C)cc1)[C@@H]1CC[C@@]2(O)[C@H]3Cc4ccc(O)c5c4[C@@]2(CC[N+]3([O-])CC2CC2)[C@H]1O5` (stereo partly drawn) [Compound 27, 17-Cyclopropylmethyl-3,14β-dihydroxy-4,5α-epoxy-6β-N-methyl[(4′-tert-butyl)benzamido]morphinan-N-oxide], for which the inhibition constant (Ki) on μ-opioid receptor (read-out: Ki (nM) ± SEM, μ) is 714 ± 66 nM; on δ-opioid receptor (read-out: Ki (nM) ± SEM, δ), 535 ± 43.8 nM; at κ-opioid receptor (Table 1b, N-oxides), 72 ± 12.6 nM.

As to `COc1ccc(C(=O)N[C@@H]2CC[C@@]3(O)[C@H]4Cc5ccc(O)c6c5[C@@]3(CC[N+]4([O-])CC3CC3)[C@H]2O6)cc1OC` (stereo partly drawn) [Compound 29, 17-Cyclopropylmethyl-3,14β-dihydroxy-4,5α-epoxy-6β-[(3′,4′-dimethoxy)benzamido]morphinan-N-oxide], the Ki came to 37 ± 2 nM on μ-opioid receptor (setting [1]); 621 ± 16.2 nM on δ-opioid receptor (Ki (nM) ± SEM, δ); 71 ± 4.87 nM at κ-opioid receptor.

As for `COc1cccc(C(=O)N[C@@H]2CC[C@@]3(O)[C@H]4Cc5ccc(O)c6c5[C@@]3(CC[N+]4([O-])CC3CC3)[C@H]2O6)c1` (stereo partly drawn) [Compound 30, 17-Cyclopropylmethyl-3,14β-dihydroxy-4,5α-epoxy-6β-[(3′-methoxy)benzamido]morphinan-N-oxide], the Ki at μ-opioid receptor (setting [1]) was found to be 16 ± 1 nM; on δ-opioid receptor (Ki (nM) ± SEM, δ), 444 ± 39.1 nM; at κ-opioid receptor it was 9.7 ± 0.95 nM.

Take `O=C(N[C@@H]1CC[C@@]2(O)[C@H]3Cc4ccc(O)c5c4[C@@]2(CC[N+]3([O-])CC2CC2)[C@H]1O5)c1ccccc1` (stereo partly drawn) [Compound 32, 17-Cyclopropylmethyl-3,14β-dihydroxy-4,5α-epoxy-6β-(benzamido)morphinan-N-oxide]: the inhibition constant (Ki) at μ-opioid receptor (setting [1]) was determined as 28 ± 2 nM; on δ-opioid receptor (Ki (nM) ± SEM, δ) it was 813 ± 34 nM; at κ-opioid receptor it was 8.5 ± 0.92 nM.

As to `O=C(Cc1ccccc1)N[C@@H]1CC[C@@]2(O)[C@H]3Cc4ccc(O)c5c4[C@@]2(CC[N+]3([O-])CC2CC2)[C@H]1O5` (stereo partly drawn) [Compound 33, 17-Cyclopropylmethyl-3,14β-dihydroxy-4,5α-epoxy-6β-(phenylacetamido)morphinan-N-oxide], the Ki was determined as 43 ± 3 nM on μ-opioid receptor (setting [1]); 1400 ± 40.5 nM at δ-opioid receptor (Ki (nM) ± SEM, δ); 47 ± 4 nM at κ-opioid receptor.

Regarding `O=C(N[C@@H]1CC[C@@]2(O)[C@H]3Cc4ccc(O)c5c4[C@@]2(CC[N+]3([O-])CC2CC2)[C@H]1O5)c1cccc(O)c1` (stereo partly drawn) [Compound 34, 17-Cyclopropylmethyl-3,14β-dihydroxy-4,5α-epoxy-6β-[(3′-hydroxy)benzamido]morphinan-N-oxide], the inhibition constant Ki at μ-opioid receptor (setting [1]) came out at 34 ± 2 nM; on δ-opioid receptor (Ki (nM) ± SEM, δ) it was 1170 ± 101 nM; on κ-opioid receptor it was 49 ± 4 nM.

`O=C(N[C@@H]1CC[C@@]2(O)[C@H]3Cc4ccc(O)c5c4[C@@]2(CC[N+]3([O-])CC2CC2)[C@H]1O5)c1ccc(Cl)cc1` (stereo partly drawn) [Compound 35, 17-Cyclopropylmethyl-3,14β-dihydroxy-4,5α-epoxy-6β-[(4′-chloro)benzamido]morphinan-N-oxide]: the Ki on μ-opioid receptor (setting [1]) turned out to be 4.7 ± 0.12 nM; at δ-opioid receptor (Ki (nM) ± SEM, δ) it was 219 ± 7.97 nM; on κ-opioid receptor, 1.8 ± 0.1 nM.

Consider `O=C(N[C@H]1CC[C@@]2(O)[C@H]3Cc4ccc(O)c5c4[C@@]2(CC[N+]3([O-])CC2CC2)[C@H]1O5)c1ccccc1` (stereo partly drawn) [Compound 37, 17-Cyclopropylmethyl-3,14β-dihydroxy-4,5α-epoxy-6α-(benzamido)morphinan-N-oxide], for which the Ki at μ-opioid receptor (setting [1]) was determined as 37 ± 2.6 nM; at δ-opioid receptor (Ki (nM) ± SEM, δ) it was 822 ± 124 nM; at κ-opioid receptor it was 64 ± 10 nM.

In general, Ki refers to the equilibrium dissociation constant of an inhibitor or competing ligand from its target.
